{"source": "patent US6911443B2", "about": "(Bayer Aktiengesellschaft, priority 2000, dated 2005)", "data": [{"target": "T1, human Syk (GST-Syk) (Homo sapiens, UniProt P43405)", "T1 construct": "A cDNA fragment encoding human Syk openreading frame was cloned; made in house; host or cells: Sf21 insect cells (baculovirus, transfer vector pAcG2T)", "assay": "Syk tyrosine kinase inhibitory assay", "assay_type": "biochemical", "details": "Table 11; read-out: Activity grade", "excerpt": "(§1) [Syk Tyrosine Kinase Inhibitory Assay]\n(§2) (1) Preparation of Syk Protein\n(§3) A cDNA fragment encoding human Syk openreading frame was cloned from total RNA of human Burkitt's lymphoma B cell lines, Raji (American Type Culture Collection), with the use of RT-PCR method. The cDNA fragment was inserted into pAcG2T (Pharmingen, San Diego, Calif.) to construct a baculovirus transfer vector. Then the vector, together with the linearized baculovirus (BaculoGold™, Pharmingen), was used to transfect Sf21 cells (Invitrogen, San Diego, Calif.).\n(§4) Generated recombinant baculovirus was cloned and amplified in Sf21 cells. Sf21 cells were infected with this amplified high titer virus to produce a chimeric protein of Syk kinase fused by glutathione-S-transferase (GST).\n(§5) The resulting GST-Syk was purified with the use of glutathione column (Amersham Pharmacia Biotech AB, Uppsala, Sweden) according to the manufacturer's instruction.\n(§6) (2) Synthesize of a Peptide\n(§7) Next, a peptide fragment of 30 residues including two tyrosine residues, […], was synthesized by a peptide synthesizer. The N-terminal of the fragment was then biotinylated to obtain biotinylated activation loop peptide (AL).\n(§8) (3) The Measurement of Syk Tyrosine Kinase Activity\n(§9) All reagents were diluted with the Syk kinase assay buffer (50 mM Tris-HCl (pH 8.0), 10 mM MgCl2, 0.1 mM Na3VO4, 0.1% BSA, 1 mM DTT). First, a mixture (35 μl) including […] of GST-Syk and 0.5 μg of AL was put in each well in 96-well plates. Then 5 μl of a test compound in the presence of 2.5% dimethylsulfoxide (DMSO) was added to each well. To this mixture was added […] (10 μl) to initiate the kinase reaction. The final reaction mixture (50 μl) consists of 0.65 nM GST-Syk, 3 μM AL, 30 μM ATP, a test compound, 0.25% DMSO, and a Syk kinase assay buffer.\n(§10) The mixture was incubated for 1 hr at room temperature, and the reaction was terminated by the addition of 120 μl of termination buffer (50 mM Tris-HCl (pH 8.0), 10 mMEDTA, 500 mM NaCl, 0.1% BSA). The mixture was transferred to streptavidin-coated plates and incubated for 30 min at room temperature to combine biotin-AL to the plates. After washing the plates with Tris-buffered saline (TBS) (50 mM Tris-HCl (pH 8.0), 138 mM NaCl, 2.7 mM KCl) containing 0.05% Tween-20 for 3 times, 100 μl of antibody solution consisting of 50 mM Tris-HCl (pH 8.0), 138 mM NaCl, 2.7 mM KCl, 1% BSA, 60 ng/ml anti-phosphotyrosine monoclonal antibody, 4G10 (Upstate Biotechnology), which is labeled with europium by Amersham Pharmacia's kit in advance, was added and incubated at room temperature for 60 min. After washing, 100 μl of enhancement solution (Amersham pharmacia Biotech) was added and then time-resolved fluorescence was measured by multi-label counter ARVO (Wallac Oy, Finland) at 340 nm for excitation and 615 nm for emission with 400 msec of delay and 400 msec of window.", "units": {"IC50": "nM"}, "values": [{"smiles": "COc1cc(-c2cc3nccn3c(Nc3ccccc3)n2)ccc1NCCCN1CCN(C)CC1", "note": "[Example 12-39]", "IC50": "< 500"}, {"smiles": "COc1ccc(-c2cc3nccn3c(Nc3cccc(C(F)(F)F)c3)n2)cc1OC", "note": "[Example 12-13]", "IC50": "500 to 2000"}, {"smiles": "COc1ccc(-c2cc3nccn3c(Nc3cccnc3)n2)cc1OC", "note": "[Example 12-7]", "IC50": "< 500"}, {"smiles": "COc1ccc(-c2cc3nccn3c(Nc3ccc4[nH]ncc4c3)n2)cc1OC", "note": "[Example 12-2]", "IC50": "< 500"}, {"smiles": "CCOc1ccc2nc(Nc3nc(-c4ccc(OC)c(OC)c4)cc4nccn34)sc2c1", "note": "[Example 12-6]", "IC50": "500 to 2000"}, {"smiles": "COc1cc(-c2cc3nccn3c(Nc3ccccc3)n2)ccc1OCCN1CCOCC1", "note": "[Example 12-26]", "IC50": "< 500"}]}, {"target": "T1, human Syk (GST-Syk)", "assay": "Syk tyrosine kinase inhibitory assay", "assay_type": "biochemical", "details": "Table 13; read-out: Activity grade", "excerpt": "as §1, §2, §3, §4, §5, §6, §7, §8, §9, §10", "units": {"IC50": "nM"}, "values": [{"smiles": "COc1ccc(-c2cc3nccn3c(SCC(F)(F)F)n2)cc1OC", "note": "[Example 14-16]", "IC50": "< 500"}, {"smiles": "COc1ccc(-c2cc3nccn3c(SC3CCCCC3)n2)cc1OC", "note": "[Example 14-29]", "IC50": "< 500"}, {"smiles": "CCC(C)Sc1nc(-c2ccc(OC)c(OC)c2)cc2nccn12", "note": "(stereo not drawn) [Example 14-20]", "IC50": "< 500"}, {"smiles": "COc1ccc(-c2cc3nccn3c(Oc3cccc(C)c3)n2)cc1OC", "note": "[Example 14-3]", "IC50": "500 to 2000"}]}, {"target": "T1, human Syk (GST-Syk)", "assay": "Syk tyrosine kinase inhibitory assay", "assay_type": "biochemical", "details": "Table 16; read-out: Activity grade", "excerpt": "as §1, §2, §3, §4, §5, §6, §7, §8, §9, §10", "units": {"IC50": "nM"}, "values": [{"smiles": "CCSc1nc(-c2ccc(OCCOC)c(OC)c2)cc2nccn12", "note": "[Example 17-10]", "IC50": "500 to 2000"}, {"smiles": "CCSc1nc(-c2ccc(OC)c(NC)c2)cc2nccn12", "note": "[Example 17-2]", "IC50": "500 to 2000"}]}, {"target": "T1, human Syk (GST-Syk)", "assay": "Syk tyrosine kinase inhibitory assay", "assay_type": "biochemical", "details": "Table 17; IC50 classes; read-out: Activity grade", "excerpt": "as §1, §2, §3, §4, §5, §6, §7, §8, §9, §10", "units": {"IC50": "nM"}, "values": [{"smiles": "CCSc1nc(-c2ccc(OC)c(OC)c2)cc2nc(C(N)=O)cn12", "note": "[Example 28]", "IC50": "500 to 2000"}, {"smiles": "COc1ccc(-c2cc3nccn3c(Sc3ccc(CCC(=O)NCCC#N)cc3)n2)cc1OC", "note": "[Example 23]", "IC50": "< 500"}]}, {"target": "T1, human Syk (GST-Syk)", "assay": "Syk tyrosine kinase inhibitory assay", "assay_type": "biochemical", "details": "in vitro; compounds as yielded by solid phase synthesis, purity about 40 to 90%", "excerpt": "as §1, §2, §3, §4, §5, §6, §7, §8, §9, §10", "values": [{"smiles": "COc1cc(-c2cc3nccn3c(Nc3ccccc3S(N)(=O)=O)n2)ccc1OCCN1CCOCC1", "note": "[Example 9-97]", "Activity grade (IC50 class)": "C-D"}, {"smiles": "COc1ccc(-c2cc3nccn3c(N3CCC(C(=O)c4ccc(F)cc4)CC3)n2)cc1OC", "note": "[Example 9-61]", "Activity grade (IC50 class)": "C-D"}]}, {"target": "T1, human Syk (GST-Syk)", "assay": "Syk tyrosine kinase inhibitory assay", "assay_type": "biochemical", "details": "in vitro; compounds as yielded by solid phase synthesis, purity about 40 to 90%; read-out: Activity grade (IC50 class)", "excerpt": "as §1, §2, §3, §4, §5, §6, §7, §8, §9, §10", "units": {"IC50": "nM"}, "values": [{"smiles": "COc1ccc(-c2cc3nccn3c(N3CCN(c4ccc([N+](=O)[O-])cc4)CC3)n2)cc1OC", "note": "[Example 9-35]", "IC50": "2000 to 10000"}, {"smiles": "COC(=O)C1CCN(c2nc(-c3ccc(OC)c(OC)c3)cc3nccn23)CC1", "note": "[Example 9-67]", "IC50": "2000 to 10000"}, {"smiles": "COc1ccc(-c2cc3nccn3c(Nc3ccc(Br)cc3C(=O)O)n2)cc1OC", "note": "[Example 11-85]", "IC50": "< 500"}, {"smiles": "COc1ccc(-c2cc3nccn3c(Nc3ccccc3F)n2)cc1OC", "note": "[Example 11-53]", "IC50": "< 500"}, {"smiles": "COc1ccc(Nc2nc(-c3ccc(OC)c(OC)c3)cc3nccn23)c(C(=O)O)c1", "note": "[Example 11-75]", "IC50": "< 500"}, {"smiles": "COc1ccc(-c2cc3nccn3c(SCc3ccccc3Cl)n2)cc1OC", "note": "[Example 9-27]", "IC50": "< 500"}, {"smiles": "COc1ccc(-c2cc3nccn3c(NCC(O)CO)n2)cc1OC", "note": "(stereo not drawn) [Example 9-4]", "IC50": "500 to 2000"}, {"smiles": "COc1ccc(-c2cc3nccn3c(Nc3ccc(NCCCN4CCOCC4)cc3)n2)cc1OC", "note": "[Example 11-90]", "IC50": "< 500"}, {"smiles": "CCSc1nc(-c2ccc(O)c(OC)c2)cc2nccn12", "note": "[material for Example 3, 4-(5-Ethylsulfanyl-imidazo[1,2-c]pyrimidin-7-yl)-2-methoxyphenol]", "IC50": "< 500"}, {"smiles": "COc1ccc(-c2cc3nccn3c(Sc3ccc(N4CCN(C)CC4)cc3)n2)cc1OC", "note": "[Example 13-16]", "IC50": "< 500"}, {"smiles": "COc1ccc(-c2cc3nccn3c(Nc3ccc(Br)cc3Cl)n2)cc1OC", "note": "[Example 11-88]", "IC50": "< 500"}, {"smiles": "COc1ccc(-c2cc3nccn3c(Nc3ccc(Br)cc3F)n2)cc1OC", "note": "[Example 11-87]", "IC50": "< 500"}, {"smiles": "COc1ccc(Nc2nc(-c3ccc(OC)c(OC)c3)cc3nccn23)cc1", "note": "[Example 11-17]", "IC50": "< 500"}, {"smiles": "COc1ccc(-c2cc3nccn3c(Nc3ccccc3S(=O)(=O)N(C)C)n2)cc1OC", "note": "[Example 11-123]", "IC50": "< 500"}, {"smiles": "C=CCSc1nc(-c2ccc(OC)c(OC)c2)cc2nccn12", "note": "[Example 9-8]", "IC50": "< 500"}, {"smiles": "COc1ccc(N2CCN(c3nc(-c4ccc(OC)c(OC)c4)cc4nccn34)CC2)cc1", "note": "[Example 9-40]", "IC50": "2000 to 10000"}, {"smiles": "COc1ccc(-c2cc3nccn3c(N(CCC#N)c3ccccc3)n2)cc1OC", "note": "[Example 11-48]", "IC50": "< 500"}]}]}
